Data from patent US10668056B2, “Pharmaceutical composition comprising indole derivatives, process for preparation and use thereof” (VIVOLUX AB, priority 2015, dated 2020).

Key:
HCT116 (Colon carcinoma) = assay: FMCA cytotoxicity, HCT116; type: cell-based, human; details: Homo sapiens, HCT-116, 72 h
Description: (§1) The inventors also set out to characterize activity of the compounds A, B and C in cell lines representing cancer of different origin. The specific assays used and the conclusions from the mechanistic evaluation have previously been described in detail (Zhang et al. 2014). Compounds A, B and C (See FIG. 4) were evaluated for cytotoxicity expressed as survival index (SI) in six human tumor cell lines using the cell based fluorometric micro culture cytotoxicity assay (FMCA) as previously described in detail (Lindhagen et al, 2008). The method is based on measurement of fluorescent fluorescein, generated from hydrolysis of FDA by viable cells with intact plasma membrane. The fluorescence is proportional to the number of intact viable cells.
(§2) The cell lines were cultivated in the respective cell medium recommended by the provider. The medium was supplemented with 10% heat-inactivated fetal bovine serum, 2 mmol/L L-glutamine, 100 μg/mL streptomycin and 100 U/mL penicillin (all from Sigma-Aldrich). The cell line was cultured at 37° C. in a humidified atmosphere containing 5% CO2.
(§3) FMCA analysis in brief, 2500 cells per well were seeded into 384-well microplates and incubated over night before treatment with compounds. Compounds were added using acoustic liquid transfer (Echo 550, LabCyte). The plates were incubated at 37° C. for 72 h, and then washed and FDA was added to the wells followed by 50 min of incubation at 37° C. The fluorescence, which is proportional to the number of living cells in each well, was measured at 485/520 nm in a Fluoroskan instrument (Labsystems, GMI, Ramsey, Minn.). Cell survival is presented as Survival Index (SI), defined as the fluorescence value in the compound-treated wells analysed as percentage of the value in the control wells, with blank values subtracted. Quality criteria included a signal/blank ratio >10 and a coefficient of variation (CV) in control and blank wells <30%. Graph Pad Prism (San Diego, Calif., USA). All experiments were performed twice, and each concentration was evaluated in quadruplicates in each experiment. […]

RKO (Colon carcinoma) = assay: FMCA cytotoxicity, RKO; type: cell-based, human; details: Homo sapiens, 72 h
Description: as §1, §2, §3

[1] = test system: HeLa (Cervix Adenocarcinoma); assay: FMCA cytotoxicity, HeLa; type: cell-based, human; details: Homo sapiens, 72 h
Description: as §1, §2, §3

[2] = test system: HepG2 (Hepatocellular Carcinoma); assay: FMCA cytotoxicity, HepG2; type: cell-based, human; details: Homo sapiens, 72 h
Description: as §1, §2, §3

[3] = test system: CCRF-CEM (Acute lymphoblastic leukemia); assay: FMCA cytotoxicity, CCRF-CEM; type: cell-based, human; details: Homo sapiens, 72 h
Description: as §1, §2, §3

[4] = test system: THP-1 (Acute Monocytic Leukemia); assay: FMCA cytotoxicity, THP-1; type: cell-based, human; details: Homo sapiens, 72 h
Description: as §1, §2, §3

[5] = test system: six human tumor cell lines; assay: FMCA cytotoxicity, six human tumor cell lines (overall); type: cell-based; details: Table 6 and FIG. 4
Description: as §1, §2, §3

## CC/C(=N\Nc1nnc2c(n1)[nH]c1c(C)cccc12)c1ccccn1 [Compound B, 2-[(1E)-1-(2-{6-methyl-5H-[1,2,4]triazino[5,6-b]indole-3-yl}hydrazin-1-ylidene)propyl]pyridine]
HCT116 (Colon carcinoma)
  IC50: ~1000 nM
RKO (Colon carcinoma)
  IC50: < 250 nM
[1]
  IC50: ~20000 nM
[2]
  IC50: < 250 nM
[3]
  IC50: < 250 nM
[4]
  IC50: < 250 nM
[5]
  activity on cancer cell lines: strong activity

## Cc1cccc2c1[nH]c1nc(NN=C(CC(C)(C)C)c3ccccn3)nnc12 [Compound C, 2-(3,3-dimethyl-N-{6-methyl-5H-[1,2,4]triazino[5,6-b]indole-3-yl}butanehydrazonoyl)pyridine]
HCT116 (Colon carcinoma)
  IC50: ~1000 nM
RKO (Colon carcinoma)
  IC50: < 250 nM
[1]
  IC50: ~10000 nM
[2]
  IC50: < 250 nM
[3]
  IC50: < 250 nM
[4]
  IC50: < 250 nM
[5]
  activity on cancer cell lines: strong activity
